US12492173B2, “Herbicidal substituted N-tetrazolyl aryl carboxamides” (Bayer Aktiengesellschaft, priority 2019, dated 2025)

Key:
Type in all cases: in vivo
[1] = tested on: Amaranthus retroflexus; test: Pre-emergence herbicidal action, AMARE; parameters: key to Herbicidal action against AMARE: % activity: 100 = plants have died, 0 = like control plants; settings: for herbicidal activity AMARE: dosage 320 g/ha, scored visually after 3 weeks vs untreated controls (100% = plants have died)
Summary of the method: (§1)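 Seeds sown in sandy loam in pots and covered with soil; compounds formulated as WP or EC were sprayed onto the soil surface as aqueous suspension/emulsion at 600 to 800 l/ha water with 0.2% wetting agent. Greenhouse growth; visual damage scored after 3 weeks versus untreated controls (100% = plants died, 0% = like control).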

[2] = tested on: Hordeum murinum; test: Pre-emergence herbicidal action, HORMU; settings: dosage 320 g/ha, scored visually after 3 weeks vs untreated controls (100% = plants have died)
Summary of the method: as §1

[3] = tested on: Lolium rigidum; test: Pre-emergence herbicidal action, LOLRI; settings: dosage 320 g/ha, scored visually after 3 weeks vs untreated controls (100% = plants have died)
From the text: 1. Pre-Emergence Herbicidal Action Against Harmful Plants Seeds of monocotyledonous and dicotyledonous weed plants and crop plants are laid out in sandy loam soil in wood-fiber pots and covered with soil. The compounds of the invention, formulated in the form of wettable powders (WP) or as emulsion concentrates (EC), are then applied to the surface of the covering soil in the form of an aqueous suspension or emulsion at a water application rate equating to 600 to 800 l/ha, with addition of 0.2% wetting agent. After the treatment, the pots are placed in a greenhouse and kept under good growth conditions for the trial plants. The damage to the test plants is scored visually after a test period of 3 weeks by comparison with untreated controls (herbicidal activity in percent (%): 100% activity=the plants have died, 0% activity=like control plants). […] The tables below illustrate, in an exemplary manner, the […] herbicidal action of the compounds according to the invention, the herbicidal activity being stated in percent. [table] In the experiments that follow, herbicidal action of numerous inventive compounds and the known compounds that are structurally closest from D1 (WO 2012/028579 A1) and D2 (WO 2018/202535 A1) were compared under the above-specified conditions by the pre-emergence and post-emergence method. The example numbers given in the tables relate to the compounds disclosed in the respective documents. In addition to the compounds disclosed in D1 and D2, the following compounds V-1 to V-14 that are encompassed by D1 or D2 but are not compounds specified therein were used in the comparative experiments: • V-1: 2-(methylsulfanyl)-3-(methylsulfinyl)-N-(1-methyl-1H-tetrazol-5-yl)-4-(trifluoromethyl)benzamide • V-2: 2-(methylsulfanyl)-3-(methylsulfonyl)-N-(1-methyl-1H-tetrazol-5-yl)-4-(trifluoromethyl)benzamide • V-3: 2,3-bis(ethylsulfanyl)-N-(1-methyl-1H-tetrazol-5-yl)-4-(trifluoromethyl)benzamide • V-4: 2-chloro-3-(ethylsulfanyl)-N-(1-methyl-1H-tetrazol-5-yl)-4-(trifluoromethyl)benzamide • V-5: 2-chloro-4-iodo-3-(methylsulfanyl)-N-(1-methyl-1H-tetrazol-5-yl)benzamide • V-6: 2-chloro-4-iodo-3-(methylsulfinyl)-N-(1-methyl-1H-tetrazol-5-yl)benzamide • V-7: 2-chloro-4-iodo-3-(methylsulfonyl)-N-(1-methyl-1H-tetrazol-5-yl)benzamide • V-8: 2-bromo-3-(methylsulfanyl)-N-(1-methyl-1H-tetrazol-5-yl)-4-(trifluoromethyl)benzamide • V-9: 2-bromo-3-(methylsulfinyl)-N-(1-methyl-1H-tetrazol-5-yl)-4-(trifluoromethyl)benzamide • V-10: 2-bromo-3-(methylsulfonyl)-N-(1-methyl-1H-tetrazol-5-yl)-4-(trifluoromethyl)benzamide • V-11: 2-bromo-3-(ethylsulfanyl)-N-(1-methyl-1H-tetrazol-5-yl)-4-(trifluoromethyl)benzamide • V-12: 2-bromo-3-(ethylsulfinyl)-N-(1-methyl-1H-tetrazol-5-yl)-4-(trifluoromethyl)benzamide • V-13: 2-bromo-3-(ethylsulfonyl)-N-(1-methyl-1-1H-tetrazol-5-yl)-4-(trifluoromethyl)benzamide • V-14: 2-cyclopropyl-3-(ethylsulfanyl)-N-(1-methyl-1H-tetrazol-5-yl)-4-(trifluoromethyl)benzamide Herbicidal Pre-Emergence Action: […]

[4] = tested on: Stellaria media; test: Pre-emergence herbicidal action, STEME; settings: dosage 320 g/ha, scored visually after 3 weeks vs untreated controls (100% = plants have died)
Summary of the method: as §1

[5] = tested on: Alopecurus myosuroides; test: Post-emergence herbicidal action, ALOMY; parameters: key: % herbicidal action vs untreated; 100 = plants died, 0 = like control; settings: post-emergence, dosage 80 g/ha
Summary of the method: (§2)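 Values are visual estimates of herbicidal action, from 0% (as untreated) to 100% (dead), made about 3 weeks after plants at one-leaf stage in sandy loam were sprayed with the formulated compound.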

[6] = tested on: Cyperus esculentus; test: Post-emergence herbicidal action, CYPES; parameters: key: % herbicidal action vs untreated; 100 = plants died, 0 = like control; settings: post-emergence, dosage 80 g/ha
Summary of the method: as §2

SMILES	Herbicidal action against AMARE ([1]; comparative experiment, 20 g of a.i./ha)	herbicidal activity AMARE [1] [%]	herbicidal activity HORMU [2] [%]	herbicidal activity LOLRI [3] [%]	herbicidal activity STEME [4] [%]	herbicidal action ALOMY [5] [%]	herbicidal action CYPES [6] [%]
CSc1c(C(=O)Nc2nnnn2C)ccc(C(F)(F)F)c1C[S+](C)[O-] (stereo not shown) [Example 1-162]	100	100	80	90	100	100	80
CCn1nnnc1NC(=O)c1ccc(C(F)(F)F)c(CSCCOC)c1Cl [Example 2-305]	–	100	100	100	100	100	100
